Results as given in patent US20100197614A1, “TREATMENT OF URINARY TRACT INFECTIONS WITH A MIXTURE OF SAPONIN AND AN ANTIBIOTIC” (priority 2007, published 2010).

What was measured:
[1] = tested on: E Coli taken up by human urinary bladder cells (HTB-9); assay: Infection of human bladder cells (HTB-9) with E Coli; surviving intracellular bacteria counted as CFU after gentamicin exposure; type: cell-based, Escherichia coli; details: HTB-9 infected 1 or 2 hours, then 100.0 μg/ml gentamicin for 2 hours
Protocol: Human bladder cells were cultured and thereafter infected with bacteria. In brief, human urinary bladder cells (HTB-9 from American tissue culture collection) were cultured in culture medium and CO2 incubator at 37° C. until the actual experiment took place. Culturing of human cells is familiar for any skilled person in this field of biology. Next, different concentrations of E Coli were added to the human bladder cells. The bladder cells and the bacteria were allowed to incubate for 1 or 2 hours together before most of the loosely bound and extracellular E Coli cells were removed by washing the bladder cells with PBS (the human bladder cells are attached to the bottom of the cell culture flask). The human bladder cells were exposed to 100.0 μg/ml gentamicin for 2 hours. Gentamicin cannot pass any membrane under normal conditions. As already shown in example 1, this gentamicin treatment kills all bacteria if the gentamicin can get access to the bacteria. Residual gentamicin and dead bacteria were removed again by washing the bladder cells with PBS. A final concentration of 0.1% triton x-100 in phosphate buffered saline was added to destroy all membrane structures of the human cells. […] The degree of expression of bacterial type 1 pili was correlated with the degree of bladder infection as measured by the method explained in example 2. […]

[2] = tested on: wild-type E Coli bacteria isolated from UTI patients; assay: Growth (absorption at 600 nm) and CFU survival of E Coli directly exposed to gentamicin in LB; type: cell-based, Escherichia coli
Protocol: Furthermore, a sample of each bacteria solution at each different gentamicin concentration was transferred to an agar plate in order to test if the bacteria could give any surviving colony forming units (CFU) on an agar plate. The agar plate incubated overnight at 37° C.
FIG. 3, lower panel, no E Coli bacteria could survive being exposed for 2 hours to concentrations of gentamicin higher than approximately 3.1 μg/ml.
Seven different wild-type E Coli bacteria were isolated from UTI patients and were cultured in Luria Broth (LB) medium under static conditions for 2 days. The method for culturing bacteria is familiar for any skilled person in this field of microbiology. The 2 days old bacteria were diluted 100 fold in fresh sterile LB and added different concentrations of gentamicin or no gentamicin (control). Gentamicin was used as representative antibiotic agent. The bacteria were then allowed to re-grow for 2 hours under optimal growth conditions (shaking and at 37° C.) before the actual concentrations of bacteria cell in the LB were measured by determination of the absorption at 600 nm. The absorption of light reflects the number of bacteria. The number of bacteria was expressed relatively to the control preparation without gentamicin. […] Furthermore, a sample of each bacteria solution at each different gentamicin concentration was transferred to an agar plate in order to test if the bacteria survived and could cause formation of colony forming units (CFU) on an agar plate. The agar plate incubated overnight at 37° C.

gentamicin
survival of bacteria taken up by bladder cells after antibiotic treatment (CFU) [1]: able to survive the antibiotic treatment
survival of test bacteria on direct exposure ([2]; 100.0 μg/ml gentamicin, 2 hours): could not survive
number of bacteria relative to control without gentamicin (absorption at 600 nm) ([2]; 2 hours re-growth with different concentrations of gentamicin): reduced at very low concentrations of gentamicin
gentamicin concentration above which no E Coli bacteria could survive (CFU on agar plate) ([2]; exposed for 2 hours, LB, 37° C., agar plate overnight): approximately 3.1 μg/ml
